# Assay results published in article PMC9377006, “Discovery of Desmuramylpeptide NOD2 Agonists with Single-Digit Nanomolar Potency” (ACS Medicinal Chemistry Letters, 2022).
# B1: interferon-γ (protein, UniProt P01579 24-161, looked up)
# Interferon gamma: QDPYVKEAENLKKYFNAGHSDVADNGTLFLGILKNWKEESDRKIMQSQIVSFYFKLFKNFKDDQSIQKSVETIKEDMNVKFFNSNKKKRDDFEKLTNYSVTDLNVQRKAIHELIQVMAELSPAAKTGKRKRSQMLFRG
# notes: proinflammatory cytokine used as costimulus
# Assays:
# [1] = tested on: K562 cancer cells; parameters: method as in PMID 34043358; conditions: cited from earlier work
# [2] = tested on: PBMCs; assay: Cytokine release from peripheral blood mononuclear cells; type: cell-based; conditions: human PBMCs, 18 h; NOD2 agonists 1 μM; LPS 10 ng/mL; IFN-γ 200 U/mL
# From the text: Encouraged by the potent NOD2 activity of 40, we preliminarily evaluated its immunostimulatory potential in human primary peripheral blood mononuclear cells (PBMCs). Specifically, we first investigated the ability of 40 to induce cytokine production in PBMCs. While activation of NOD2 alone is sufficient to elicit cytokine responses, these responses are usually of low intensity. However, NOD2 agonists can act in synergy with ligands of other innate immune receptors and proinflammatory cytokines to induce considerably stronger responses. We were particularly intrigued by the synergistic interactions between NOD2, TLR4, and IFN-γ. The synergy between NOD2 agonists and TLR4 agonists in terms of cytokine secretion, including IFN-γ, is well-established.[29],[30] Similarly, IFN-γ has previously been reported to augment the MDP-mediated activation and cytokine production by dendritic cells and macrophages.[31],[32]
# Figure 2 Synergistic effects of 40 with LPS and IFN-γ on induction of cytokine production from PBMCs. Cytokine concentrations were measured after 18 h of stimulation with NOD2 agonists (1 μM) in the presence or absence of LPS (10 ng/mL) and IFN-γ (200 U/mL) or the corresponding vehicle (0.1% DMSO; NT). Data are expressed as mean ± SEM of three independent experiments. Statistical significance was determined by one-way ANOVA followed by Bonferroni’s multiple-comparisons test; *, p < 0.05, **, p < 0.01, ***, p < 0.001 versus vehicle-treated control; ##, p < 0.01, ###, p < 0.001 versus 40 or LPS alone.
# Figure S5. The effect of 40 on the production of cytokines from human PBMCs is NOD2 -dependent. PBMCs were pre-incubated for 1 h in the presence or absence of the NOD2 antagonist SG84 (10 µM), before the addition of 40 (1 µM). Cytokine concentrations in supernatants were measured after 18 h stimulation.
# Data are expressed as mean s ± SEM of 3 independent experiments. Statistical significance was determined by one-way ANOVA followed by Bonferroni’s multiple comparisons test; **, p < 0.01, ***, p < 0.001. […]
# 4.9 Cytokine release from peripheral blood mononuclear cells
# Peripheral blood mononuclear cells were seeded ( 500,000 cells/well) in 24-well plates in 500 µL growth medium and treated with MDP (1 µM), 2 (1 µM), or 40 (1 µM), in the presence or absence of LPS (10 ng/mL) or IFN-γ (200 U/mL), or the corresponding vehicle (0.1% DMSO). In some wells, PBMCs were pre-treated for 1 h with the NOD2 antagonist SG84 (10 µM), before the addition of 40 (1 µM). Cell-free supernatants were collected after 18 h of incubation (37 °C, 5% CO2) and stored at -80 °C until tested.
# Cytokine production was determined with BD Cytometric Bead Array human inflammatory cytokines kit (BD Bioscience) on an Attune NxT flow cytometer (Thermo Fisher Scientific, Waltham, MA, USA). Standard curves were generated using recombinant cytokines contained in the kit. The data were analyzed using the FlowJo (Tree Star, Inc., Ashland, OR, USA) and Prism (GraphPad, San Diego, CA, USA) software.
# [3] = tested on: K562 cancer cells; assay: PBMC cytotoxicity against K562 cancer cells; type: cell-based; conditions: 1 μM + LPS 1 μg/mL or IFN-γ 200 U/mL, 18 h; 40:1, 4 h
# Protocol: In addition, we also investigated the ability of 40, both alone and in combination with LPS and IFN-γ, to induce direct and nonspecific cytolytic activity of PBMCs against cancer cells. For this purpose, we used a functional cytotoxicity assay based on the coincubation of preactivated PBMCs and fluorescently labeled K562 cancer cells.[33] Among the heterogeneous subpopulations of PBMCs, natural killer (NK) cells and, to a lesser extent, monocytes represent the main effector cell types in this assay. NK cells play an essential role in tumor and viral immunosurveillance, both through direct cytolytic destruction of aberrant cells and by facilitating the recruitment and activation of other immune cells through the secretion of cytokines.[34] In addition to their well-established role in cancer immunotherapy, NK cells thus also provide an attractive target in the development of vaccine adjuvants, particularly when Th1 cellular immune responses are preferred.[35] Other cell populations, however, may contribute to the magnitude of NK cell-mediated responses via cytokine secretion. To account for the contribution of these accessory cells and to more accurately represent in vivo conditions, the entire PBMC population was used instead of isolated NK cells.
# Figure 3 2 and 40 synergize with LPS and IFN-γ to induce the cytotoxicity of PBMCs against K562 cancer cells. Following 18 h of stimulation of PBMCs with 2 (1 μM) or 40 (1 μM) in the presence or absence of LPS (1 μg/mL) and IFN-γ (200 U/mL) or the corresponding vehicle (0.1% DMSO; NT), K562 cells were added in a 40:1 effector to target cell ratio. Cytotoxicity was determined after 4 h of coincubation. IL-2 (200 U/mL) was used as the positive control. Data are shown as relative activities to vehicle-treated control (0.1% DMSO) and are the means ± SEMs of duplicates of two independent experiments. Statistical significance was determined by one-way ANOVA followed by Dunnet’s multiple-comparisons test; **, p < 0.01, ***, p < 0.001. […]
# 4.8 Peripheral blood mononuclear cell cytotoxicity
# The PBMC cytotoxicity assays using K562 cells were performed as described previously, with some modifications.2 PBMCs were seeded (400,000 cells/well) in duplicates in 96 -well U-bottom plates and treated with 2 (1 µM) or 40 (1 µM), in the presence or absence of LPS (1 µg/mL) or IFN-γ (200 U/mL), IL-2 (200 U/mL), or the corresponding vehicle (0.1% DMSO) for 18 h. K562 were stained with carboxyfluorescein succinimidyl ester (CFSE, Invitrogen, Carlsbad, CA, USA), washed twice with complete medium, and added (10,000 cells/well) to the pre-treated PBMCs for a final effector cell to target tumor cell ratio of 40:1. After a 4 h coincubation (37 °C, 5% CO2), cells were stained with Sytox Blue dead cell stain (Invitrogen) and analyzed using an Attune NxT flow cytometer (Thermo Fisher Scientific, Waltham, MA, USA) and FlowJo software (Tree Star, Inc., Ashland, OR, USA). Cells that were positive for both CFSE and Sytox Blue were defined as dead K562 cells. PBMCs alone and CFSE-labeled K562 cells alone were also treated with the compounds at the same concentrations and stained with Sytox Blue to exclude any direct cytotoxicity of the compounds towards the PBMCs and cancer cells.
# 4.9 Cytokine release from peripheral blood mononuclear cells […]
# [4] = biological target: T1, human NOD2 (Homo sapiens, UniProt Q9HC29); assay: HEK-Blue NOD2 NF-κB SEAP reporter assay (NOD2 agonistic activity); type: cell-based
# T1 construct: host or cells: HEK-Blue NOD2 cells (derived from HEK293)
# T1 sequence (Q9HC29 whole entry): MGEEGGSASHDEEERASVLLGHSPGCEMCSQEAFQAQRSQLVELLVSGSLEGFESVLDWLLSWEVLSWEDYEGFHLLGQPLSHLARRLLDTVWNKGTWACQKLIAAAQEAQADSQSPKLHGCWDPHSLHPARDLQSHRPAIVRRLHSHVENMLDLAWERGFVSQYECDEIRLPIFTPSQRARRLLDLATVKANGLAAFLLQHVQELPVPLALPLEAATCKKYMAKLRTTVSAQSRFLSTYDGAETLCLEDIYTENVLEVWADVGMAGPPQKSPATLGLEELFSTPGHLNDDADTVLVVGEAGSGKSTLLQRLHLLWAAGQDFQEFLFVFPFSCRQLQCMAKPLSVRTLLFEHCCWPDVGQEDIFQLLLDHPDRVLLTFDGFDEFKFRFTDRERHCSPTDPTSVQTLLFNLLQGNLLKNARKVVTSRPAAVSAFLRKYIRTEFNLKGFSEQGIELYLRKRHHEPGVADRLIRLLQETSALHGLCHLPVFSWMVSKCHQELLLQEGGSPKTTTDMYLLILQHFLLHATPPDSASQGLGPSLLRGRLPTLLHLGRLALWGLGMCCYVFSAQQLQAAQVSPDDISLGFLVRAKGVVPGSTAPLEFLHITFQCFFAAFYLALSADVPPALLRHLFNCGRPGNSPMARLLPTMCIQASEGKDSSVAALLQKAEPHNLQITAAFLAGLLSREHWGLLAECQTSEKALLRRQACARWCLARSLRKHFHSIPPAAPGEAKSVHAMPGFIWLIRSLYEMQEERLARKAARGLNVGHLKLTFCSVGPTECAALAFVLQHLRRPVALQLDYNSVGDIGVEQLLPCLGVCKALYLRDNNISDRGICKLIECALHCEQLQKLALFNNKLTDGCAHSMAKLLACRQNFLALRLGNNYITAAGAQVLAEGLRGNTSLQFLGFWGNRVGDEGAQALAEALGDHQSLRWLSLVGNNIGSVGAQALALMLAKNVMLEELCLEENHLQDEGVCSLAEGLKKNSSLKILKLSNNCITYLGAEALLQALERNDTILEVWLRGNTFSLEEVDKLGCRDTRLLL
# Protocol: The synthesized desmuramylpeptides were evaluated for their dose-dependent NOD2 activity using the commercially available HEK-Blue NOD2 reporter cell line. This cell line is derived from HEK293 cells by cotransfection of human NOD2 and an NF-κB-inducible secreted embryonic alkaline phosphatase (SEAP). Activation of NOD2 and subsequently of NF-κB leads to the expression and secretion of SEAP, the level of which can be quantified colorimetrically. […]
# two passages, 200 µg/mL Zeocin (Invivogen) was added to the medium every other passage to maintain selection pressure. The cells were incubated in a humidified atmosphere at 37 °C and 5% CO 2. […]
# Aldrich), and 100 µg/mL streptomycin (Sigma -Aldrich).
# The tested compounds were dissolved in DMSO and further di luted in culture medium to the desired final concentrations, such that the final DMSO concentration never exceeded 0.1%. […]
# 4.6 NOD1/NOD2-NF-kB reporter assay
# HEK-Blue NOD2 or NOD1 cells were seeded (25,000 cells/well) in 96 -well plates in 100 µL HEK-Blue detection medium (Invivogen, San Diego, CA, USA) and treated with compounds ( 2 µM for fixed […]
# the corresponding vehicle (0.1% DMSO). After 18 h of incubation (37 °C, 5% CO2), secreted embryonic alkaline phosphatase (SEAP) activity was determined spectrophotometrically as absorbance at 630 nm (BioTek Synergy microplate reader; Winooski, VT, USA). EC50 values were calculated using Prism software (version 9; GraphPad Software, CA, USA). The experiments were run in duplicates and repeated as at least three independent biological replicates. […]
# [5] = HEK-Blue NOD2 cells, 18 h, means ± SEMs of at least three independent experiments, 8 or 16 concentrations (0.1 nM to 20 μM)
molecule,measurement,setting,value
CCOC(=O)CC[C@@H](NC(=O)[C@@H](NC(=O)CNC(=O)/C=C/c1ccc(O)c(OC)c1)C(C)C)C(=O)OCC [Compound 1],induction of cytotoxic activity of PBMCs (previous observations),[1],failed to induce
COc1cc(/C=C/C(=O)NCC(=O)N[C@H](C(=O)N[C@H](CCC(=O)OC2CCCC2)C(=O)OC2CCCC2)C(C)C)ccc1O [Compound 2],"production of IL-1β, IL-6, IL-8 and TNF-α, stimulant alone",[2],modest production
same,"LPS- and IFN-γ-induced cytotoxic activity of PBMCs against K562, costimulation",[3],significantly enhanced
same,induction of cytotoxic activity of PBMCs (previous observations),[1],failed to induce
CCOC(=O)CC[C@@H](NC(=O)[C@H](Cc1ccncc1)NC(=O)CNC(=O)/C=C/c1ccc(O)c(OC)c1)C(=O)OCC [Compound 15],NOD2 agonistic activity at the highest concentration tested,"[4]; 20 μM, HEK-Blue NOD2 cells",only minor NOD2 agonistic activity
same,EC50,[4]; [5],> 10000 nM
CCOC(=O)CC[C@@H](NC(=O)[C@@H](NC(=O)CNC(=O)/C=C/c1ccc(O)c(OC)c1)C12CC3CC(CC(C3)C1)C2)C(=O)OCC [Compound 16],EC50,[4]; [5],> 10000 nM
CCOC(=O)CC[C@@H](NC(=O)[C@H](CCc1ccccc1)NC(=O)CNC(=O)/C=C/c1ccc(O)c(OC)c1)C(=O)OCC [Compound 17],EC50,[4]; [5],420 ± 41 nM
CCOC(=O)CC[C@@H](NC(=O)[C@@H](NC(=O)CNC(=O)/C=C/c1ccc2c(c1)OCO2)C(C)C)C(=O)OCC [Compound 29],EC50,[4]; HEK-Blue NOD2 cells,2670 nM
same,EC50,[4]; [5],2670 ± 357 nM
same,reduction in potency relative to 1,[4]; NOD2 EC50 versus compound 1,30 fold
CCOC(=O)CC[C@@H](NC(=O)[C@@H](NC(=O)CNC(=O)c1cc2ccccc2o1)C(C)C)C(=O)OCC [Compound 30],EC50,[4]; HEK-Blue NOD2 cells,4340 nM
same,EC50,[4]; [5],4340 ± 468 nM
CCOC(=O)CC[C@@H](NC(=O)[C@@H](NC(=O)CNC(=O)c1cc2ccc(Br)cc2o1)C(C)C)C(=O)OCC [Compound 31],EC50,[4]; HEK-Blue NOD2 cells,1930 nM
same,EC50,[4]; [5],1930 ± 168 nM
CCOC(=O)CC[C@@H](NC(=O)[C@@H](NC(=O)CNC(=O)c1cc2cc(Br)ccc2o1)C(C)C)C(=O)OCC [Compound 32],EC50,[4]; [5],316 ± 30 nM
CCOC(=O)CC[C@@H](NC(=O)[C@@H](NC(=O)CNC(=O)c1cc2cc([N+](=O)[O-])ccc2o1)C(C)C)C(=O)OCC [Compound 33],EC50,[4]; [5],760 ± 84 nM
CCOC(=O)CC[C@@H](NC(=O)[C@@H](NC(=O)CNC(=O)c1nc(-c2ccccc2)oc1C)C(C)C)C(=O)OCC [Compound 34],EC50,[4]; HEK-Blue NOD2 cells,2620 nM
same,EC50,[4]; [5],2620 ± 209 nM
COc1cc(/C=C/C(=O)NCC(=O)N[C@H](C(=O)N[C@H](CCC(=O)OC2CCCC2)C(=O)OC2CCCC2)C(C)C)ccc1OC(=O)CC12CC3CC(CC(C3)C1)C2 [Compound 41],EC50,[4]; [5],44 ± 9 nM
"CC(=O)NC1C(O)OC(CO)C(O)C1OC(C)C(=O)NC(C)C(=O)NC(CCC(=O)O)C(N)=O (stereo not drawn) [MDP, muramyl dipeptide, reference compound]",EC50,[4]; [5],203 ± 12 nM
same,"production of IL-1β, IL-6, IL-8 and TNF-α, stimulant alone",[2],modest production
"lipopolysaccharide [LPS, reference compound]","production of IL-1β, IL-6, IL-8 and TNF-α, stimulant alone",[2],strong increase
B1,"production of IL-1β, IL-6, IL-8 and TNF-α, stimulant alone",[2],negligible cytokine secretion
